According to patent US20240226057A1, “NEW USE OF MONENSIN” (MAST PHARMA AB, priority 2021, published 2024):
“Also recorded” adds a separate entry of the source. Like-named read-outs stand apart in the source and are kept apart here.

What was measured:
[1] = test system: Caspase 3 & 7; assay: Caspase 3 & 7 activation in mast cells
[2] = test system: Bone marrow-derived mast cells (BMMCs); assay: BMMC viability, screening and kinetic analysis (Presto Blue / resazurin reduction)
[3] = test system: Bone marrow-derived mast cells (BMMCs); assay: Trypan blue positivity of treated mast cells; type: cell-based, mouse
[4] = test system: human fibroblast cells (HFL-1); assay: Cytotoxicity against human fibroblast cells (PrestoBlue)
[5] = test system: mouse bone-marrow-derived mast cells (BMMCs); assay: Annexin V/DRAQ7 cell death assessment in BMMCs; type: cell-based
Experimental: (§1) To assess cell death, cells were stained with Annexin V and either DRAQ7™ or Via-Probe™ Red Nucleic Acid Stain and analyzed by flow cytometry. To probe pH in acidic organelles, cells were incubated with LysoSensor Blue DND-167, followed by flow cytometry. The relative intracellular pH changes were assessed using the cell-permeable pH-sensitive fluorescent indicator (BCFL-AM). Intracellular calcium changes were assessed using Fluo-4/AM.
To analyze the mechanism by which monensin acts on mast cells, Annexin V/DRAQ7 staining was first adopted to assess the type of cell death induced by monensin, the gating is shown in FIG. 2A. […] Necrotic/late apoptotic (Annexin V^+/DRAQ7^+) cells were also seen, but to a lesser extent (right panel).
BMMCs were treated with 1 μM monensin for 12 and 24 h, followed by Annexin V/DRAQ7 staining to measure cell death. MCs were gated into cells having high and low maturity, as assessed by SSC analysis for granularity (A). The right panels depict the quantification of apoptotic (Annexin V^+/DRAQ7^−) and necrotic (Annexin V^+/DRAQ7^+) cell death in the respective populations (n=3). (B) BMMCs (0.5×10^6 cells) were developed from WT (FIG. 4B) or serglycin^−/− (SG^−/−) mice (data not shown) and were treated with monensin 0-10 μM for 24 h, followed by cell death assessment (Annexin V/DRAQ7 staining). BMMCs (C; 0.5×10^6 cells) or human skin MCs (0.1×10^6 cells; D) were treated with monensin or bafilomycin A 0-10 μM for 30 min, followed by staining with LysoSensor Blue DND-167 (a lysosome probe sensitive to decreased pH) (n=4). BMMCs (0.5×10^6 cells) were treated with either monensin or bafilomycin A (20 nM) alone or in combination (E), followed by measurement of cell death (Annexin V/DRAQ7 staining). (F) BMMCs were treated with monensin or bafilomycin A for 4 and 24 h, followed by assessment of cytosolic pH (n=2). […] To further assess the impact of the secretory granules on monensin-induced cell death, it was evaluated whether the absence of serglycin, a granule-restricted proteoglycan, affects the response to monensin. Both WT and serglycin^−/− BMMCs were sensitive to cell death induced by monensin.

[6] = test system: mMCP-6; assay: Translocation of granule protease mMCP-6 into the cytosolic fraction; type: cell-based
[7] = test system: BMMCs; assay: Granule acidity, LysoSensor Blue DND-167 staining of BMMCs; type: cell-based, mouse; settings: 0-10 μM for 30 min
Experimental: as §1
(§2) BMMCs were treated with 1 μM monensin for 12 and 24 h, followed by Annexin V/DRAQ7 staining to measure cell death. MCs were gated into cells having high and low maturity, as assessed by SSC analysis for granularity (A). The right panels depict the quantification of apoptotic (Annexin V^+/DRAQ7^−) and necrotic (Annexin V^+/DRAQ7^+) cell death in the respective populations (n=3). (B) BMMCs (0.5×10^6 cells) were developed from WT (FIG. 4B) or serglycin^−/− (SG^−/−) mice (data not shown) and were treated with monensin 0-10 μM for 24 h, followed by cell death assessment (Annexin V/DRAQ7 staining). […] To further assess the impact of the secretory granules on monensin-induced cell death, it was evaluated whether the absence of serglycin, a granule-restricted proteoglycan, affects the response to monensin. […]

[8] = test system: Bone marrow-derived mast cells (BMMCs); settings: mouse; for Viability % (10 μM): 24 h
[9] = test system: MCs; assay: Cell death in absence or presence of caspase inhibitor Z-DEVD; type: cell-based; settings: 1 or 10 μM monensin, with or without Z-DEVD
Experimental: MCs were treated with 1 or 10 μM monensin, either in the absence or presence of a caspase inhibitor: Z-DEVD. Flow cytometry was used to distinguish between viable (Annexin V^−/DRAQ7^−), apoptotic (Annexin V^+/DRAQ7^−) and necrotic (Annexin V^+/DRAQ7^+) cells. […] In line with the latter, the extent of cell death in response to monensin was not affected by the caspase inhibitor, Z-DEVD (FIG. 3).

[10] = test system: human neutrophils; assay: Human peripheral blood-derived cells, viability: neutrophils; type: cell-based
Experimental: (§3) Mononuclear cells and granulocytes were purified from heparinized human peripheral blood. Cells were stained with antibodies against CD4 (RPA-T4), CD8 (RPA-T8), CD19 (HIB19) and CD14 (M5E2) or CCR3 (5E8) and CD15 (W6D3) for analysis of mononuclear cells and granulocytes, respectively.
as §1
(§4) To extend these findings into the corresponding human leukocyte populations, the inventors assessed the effects of monensin on eosinophils (B), human blood monocytes (C), lymphocytes (D), and neutrophils (E).

[11] = test system: human blood monocytes; assay: Human peripheral blood-derived cells, viability: monocytes; type: cell-based
Experimental: as §3, §1, §4

[12] = test system: peritoneal lymphocytes; assay: Mouse peritoneal lavage cells, viability by flow cytometry: lymphocytes; type: cell-based; settings: 0-10 μM for 24 h
Experimental: (§5) Mouse peritoneal cells were treated with monensin and stained with labeled antibodies against CD117 (2B8), FcεRI (MAR-1), Siglec-F (E50-2440), CD11b (M1/70), F4/80 (BM8), CD3 (17A2), CD4 (GK1.5), CD8b (eBioH35-17.2) and CD19 (ebuo1D3).
as §1
(§6) To this end, monensin was added to cells recovered by peritoneal lavage of mice, followed by flow cytometry analysis to assess the effects of monensin on the various cell populations of the peritoneum.
(§7) Peritoneal cell populations were recovered by peritoneal lavage of mice. The gating strategy to identify viable cells and to identify macrophages, lymphocytes, MCs and eosinophils within the peritoneal cell population is shown in (A). […] The panels show quantification of viable (Annexin V^−/Via-Probe^−) cells; in the MC (B), lymphocyte (C), macrophage (D) and eosinophil (E) populations (n=3).

[13] = test system: mouse peritoneal cell-derived mast cells (PCMCs); assay: Annexin V/DRAQ7 cell death assessment in PCMCs; type: cell-based; settings: 24 h incubation
Experimental: as §1
To assess whether monensin also induces cell death of fully mature mast cells, mouse peritoneal cell-derived mast cells (PCMCs) were developed and their sensitivity to monensin was assessed. […] In fact, these mature mast cells were even more sensitive to monensin than were the BMMCs, with significant cell death seen at concentrations down to 10 nM (24 h incubation).

[14] = test system: human primary airway epithelial cells (HSAEC); assay: Cytotoxicity against human primary airway epithelial cells (PrestoBlue); type: cell-based; settings: 0.01-10 μM for 48 h; much less than on mast cells
[15] = test system: mast cells; settings: cited from earlier work
[16] = test system: human eosinophils; assay: Human peripheral blood-derived cells, viability: eosinophils; type: cell-based
Experimental: as §3, §1, §4

[17] = test system: mast cells populating the tracheal tissue; assay: Histological analysis of tracheal segments (astra blue); design: species or system guinea pig; settings: monensin-treated tracheal tissue
Experimental: Double staining of control (D) and monensin-treated tracheal tissue (E, F) was performed with astra blue.

[18] = test system: MCs; assay: Intracellular calcium in MCs (Fluo-4/AM); type: cell-based
Experimental: as §1

[19] = test system: human lymphocytes; assay: Human peripheral blood-derived cells, viability: lymphocytes; type: cell-based
Experimental: as §3, §1, §4

[20] = test system: peritoneal eosinophils; assay: Mouse peritoneal lavage cells, viability by flow cytometry: eosinophils; type: cell-based; settings: 0-10 μM for 24 h
Experimental: as §5, §1, §6, §7

[21] = test system: HEK293 cells; assay: Cytotoxicity against HEK293 cells (PrestoBlue); type: cell-based, human; settings: 0.01-10 μM for 48 h; much less than on mast cells
[22] = test system: peritoneal MCs; assay: Mouse peritoneal lavage cells, viability by flow cytometry: MCs; type: cell-based; settings: 0-10 μM for 24 h
Experimental: as §5, §1, §6, §7

[23] = test system: human fibroblast cells (HFL-1)
[24] = test system: peritoneal macrophages; assay: Mouse peritoneal lavage cells, viability by flow cytometry: macrophages; type: cell-based; settings: 0-10 μM for 24 h
Experimental: as §5, §1, §6, §7

[25] = test system: human skin mast cells (hskinMC); assay: Cell death assessment in human skin mast cells; type: cell-based
Experimental: as §1
(§8) Next, the inventors assessed if monensin is cytotoxic for human mast cells by assessing its effect on immature human mast cell lines (LUVA, HMC-1) and on fully mature skin mast cells (hskinMC).

[26] = test system: MCs; assay: Hexosaminidase release from MCs; type: cell-based
[27] = test system: immature human mast cell line LUVA; assay: Cell death assessment in LUVA cells; type: cell-based; settings: lower potency than for BMMCs and PCMCs
Experimental: as §1, §8

[28] = test system: human skin MCs; assay: Granule acidity, LysoSensor Blue DND-167 staining of human skin MCs; type: cell-based; settings: 0-10 μM for 30 min
Experimental: as §1, §2

[29] = test system: BMMCs; assay: Cytosolic pH in BMMCs (BCFL-AM); type: cell-based, mouse; settings: 4 and 24 h
Experimental: as §1, §2

[30] = test system: immature human mast cell line HMC-1; assay: Cell death assessment in HMC-1 cells; type: cell-based; settings: lower potency than for BMMCs and PCMCs
Experimental: as §1, §8

## CC(=O)OC[C@H]1O[C@@H]([S-])[C@H](OC(C)=O)[C@@H](OC(C)=O)[C@@H]1OC(C)=O.CCP(CC)CC.[Au+] [Auranofin]
[1]
  Caspase 3 & 7 activation: +
  Caspase-3 & 7 activation: caspase-3 & 7 positivity
[2]; 1 μM, BMMCs, Presto Blue
  Viability % (1 μM): 83%
[2]; 10 μM, BMMCs, 24 hours, Presto Blue
  Viability % (10 μM): 1%
[3]
  Viability % (TB) (10 μM): 100%
[4]; 10 μM, 48 h
  Cytotoxicity at 10 μM on HSFib (HFL-1) cells: exhibited cytotoxicity

## CO/C1=C\C(C)=C\[C@@H](C)[C@@H](O)[C@@H](C)C/C(C)=C/C=C/[C@H](OC)[C@@H]([C@@H](C)[C@@H](O)[C@H](C)[C@@]2(O)C[C@@H](O)[C@H](C)[C@@H](C(C)C)O2)OC1=O [Bafilomycin A]
[5]; bafilomycin A 20 nM in combination with monensin, BMMCs
  Extent of cell death induced by monensin when combined with bafilomycin A: significant reduction
[6]
  Monensin-induced translocation of mMCP-6 to the cytosol in cells treated with bafilomycin A: abrogated
[7]
  LysoSensor Blue DND-167 staining / granule acidity, BMMCs: profound reduction

## CCN(CC)CCOc1ccc(C(=C(Cl)c2ccccc2)c2ccccc2)cc1 [Clomiphene]
[1]
  Caspase 3 & 7 activation: −
  Caspase-3 & 7 activation: absence of a positive signal
[8]
  Viability % (1 μM): 99%
  Viability % (10 μM): 76%
[3]
  Viability % (TB) (10 μM): 22%

## CC[C@]1([C@H]2O[C@H]([C@@H]3O[C@](O)(CO)[C@@H](C)C[C@H]3C)C[C@H]2C)CC[C@@H]([C@@]2(C)CC[C@@]3(C[C@@H](O)[C@H](C)[C@H]([C@H](C)[C@H](OC)[C@H](C)C(=O)O)O3)O2)O1 [Monensin, 4-[2-[5-ethyl-5-[5-[6-hydroxy-6-(hydroxymethyl)-3,5-dimethyl-oxan-2-yl]-3-methyl-oxolan-2-yl]oxolan-2-yl]-9-hydroxy-2,8-dimethyl-1,6-dioxaspiro[4.5]dec7-yl]-3-methoxy-2-methyl-pentanoic acid]
[1]
  Caspase 3 & 7 activation: −
  Caspase-3 & 7 activation: absence of a positive signal; also recorded: does not cause caspase-3 & 7 activations
[9]
  Extent of cell death in presence of caspase inhibitor Z-DEVD: not affected
[10]
  Response of human neutrophils: only marginally affected
[11]
  Viability of human monocytes: no reduction
[12]
  Response of peritoneal lymphocytes: resistant
[13]
  Concentrations with significant cell death in PCMCs (down to): ≥ 10 nM
[14]
  Concentration from which a cytotoxic effect was exhibited, HSAEC: ≥ 1000 nM
[15]; 5 hr incubation with mast cells
  Histamine release on longer incubation: potent secretagogue
[15]; secretagogues such as calcium ionophore A23187
  Concentrations able to prevent histamine release from mast cells stimulated by secretagogues: 0.6 to 150 µg/mL
[16]
  Response of human eosinophils: sensitive
[17]
  Proportion of mast cells having a defined nucleus: profound reduction
[18]
  Cytosolic calcium: did not cause an increase
[8]
  Viability % (1 μM): 72%
  Viability % (10 μM): 66%
[19]
  Viability of human lymphocytes: no reduction
[5]; 0-10 μM for 24 h, serglycin−/− BMMCs
  Type of cell death in serglycin−/− BMMCs: predominantly Annexin V/DRAQ7 double-positive
[5]; 1 μM, 12 and 24 h, SSC gating
  Sensitivity of mast cells with high granularity versus low granularity: markedly more sensitive
[5]; WT BMMCs
  Type of cell death in WT BMMCs (Annexin V/DRAQ7): predominantly Annexin V single positivity; also recorded: predominantly apoptotic cell death
[6]
  Translocation of mMCP-6 into the cytosolic fraction: profound translocation
[20]
  Concentrations with substantial cell death of peritoneal eosinophils (down to): ≥ 10 nM
[21]
  Concentration from which a cytotoxic effect was exhibited, HEK293: ≥ 1000 nM
[22]
  Concentrations at which peritoneal MCs were extensively depleted (down to): ≥ 10 nM
[23]
  Cytotoxicity at 10 μM on HSFib (HFL-1) cells: exhibited cytotoxicity
[7]
  LysoSensor Blue DND-167 staining / granule acidity, BMMCs: marked reduction
[24]
  Response of peritoneal macrophages: resistant
[25]; especially after longer incubation time
  Sensitivity of human skin mast cells: considerable sensitivity
[25]; sign of necrosis almost negligible
  Type of cell death in human skin mast cells: mainly apoptosis
[2]
  Selectivity of cytotoxic effect, mast cells versus HFL-1, HSAEC, HEK-293: high and selective cytotoxic effect on mast cells
[2]; 0.01-10 μM for 24, 48 or 72 h
  Potency against BMMCs compared with the other drugs: markedly more potent than any of the other three drugs
[2]; 0.01-10 μM for 24, 48 or 72 h, especially after prolonged (72 h) incubation
  Concentrations showing considerable toxicity to BMMCs (down to): ≥ 10 nM
[26]
  Release of hexosaminidase: did not cause
[3]
  Viability % (TB) (10 μM): 12%
[27]
  Cytotoxicity to LUVA cells: cytotoxic
[4]; 0.01-10 μM for 48 h, much less than on mast cells
  Concentration from which a cytotoxic effect was exhibited, HFL-1: ≥ 1000 nM
[28]
  LysoSensor Blue DND-167 staining, human skin MCs: marked reduction
[29]
  Cytosolic pH: significant drop
[30]
  Cytotoxicity to HMC-1 cells: cytotoxic
